Assay results from US12291504B2 (University of Pittsburgh—Of the Commonwealth System of …, priority 2018, dated 2025).
Like-named read-outs stand apart in the source and are kept apart here.

Assays:
SULT1A3 = SULT1A3 (Homo sapiens, UniProt P0DMM9); test: SULT1A3 inhibition studies, 1-HP initial-rate fluorescence assay; assay type: biochemical; parameters: Wild-type and mutant SULT1A3 coding regions were inserted into a pGEX-6P expression vector; N-His/GST/MBP triple-tag (N, cleaved yes); made in house; host or cells: E. coli BL21(DE3); inhibition: dose or concentration left out as unconfirmed; conditions: for inhibition: read-out: SULT1A3 Enzyme Inhibition at Saturation/%
Sequence of SULT1A3 (P0DMM9 whole entry): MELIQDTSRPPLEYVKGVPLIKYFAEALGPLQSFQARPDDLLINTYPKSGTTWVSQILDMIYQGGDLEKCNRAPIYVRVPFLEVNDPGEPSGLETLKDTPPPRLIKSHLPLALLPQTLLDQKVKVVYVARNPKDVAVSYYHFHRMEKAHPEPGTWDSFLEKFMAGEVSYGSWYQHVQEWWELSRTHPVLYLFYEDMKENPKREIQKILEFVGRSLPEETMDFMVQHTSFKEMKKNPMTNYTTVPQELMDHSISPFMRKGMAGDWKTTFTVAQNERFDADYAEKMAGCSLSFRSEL
Experimental: The initial rates of SULT catalyzed 1-HP sulfonation are plotted as a function of inhibitor concentration, and are normalized relative to [inhibitor]=0. Enzyme activity was monitored by the sulfonation dependent change in 1-HP fluorescence (λex=325 nm, λem=370 nm). Less than 5% of the concentration-limiting substrate converted at the reaction endpoint was consumed during initial-rate measurements. Each point is the average of three independent determinations. Conditions: SULT (20 nM, active sites), PAPS (0.50 mM, 17×Km), 1-HP (5.0 μM, 61×Km), KPO4 (50 mM), pH 7.5, 25±2° C.
(§1) Initial-Rate Studies. Initial-rate parameters for the labeled or mutant SULT1A3 constructs were determined using a previously described 1-HP assay (25). Briefly, reactions were initiated by addition of PAPS (0.50 mM, 17×Km) to a solution containing enzyme (20 nM, active sites), 1-HP (2.0 μM, ˜24×Km), and KPO4 (50 mM), pH 7.5, 25±2° C. Reactions were monitored via fluorescence change associated with the conversion of 1-HP to 1-HP-S (λex=325 nm, λem=370 nm). Keq for the 1-HP sulfonation reaction is −250. Given the reaction conditions outlined above, ≥99% of 1-HP is converted to 1-HP-S, and ˜0.4% of PAPS is converted to PAP at equilibrium. […] Reaction progress curves were analyzed to obtain initial-rate parameters as described previously (26,27).
(§2) Inhibition studies. Inhibition parameters were determined under conditions identical to those described above (see, Initial-Rate Studies) except that [1-HP] was increased to 5.0 μM (˜61×Km) and inhibitor concentration was varied between 0.20-20×Ki. Ki was obtained using a least-squares fit to the following partial inhibition equation (25,28): v=kcat·(Ki+(1/kcat inh)·[I])/(Ki+[I]), where kcat inh is enzyme turnover at saturating substrates and allosteric inhibitor.
as §1, with “(47).” for “(25).”, “˜250.” for “−250.”, “(48,49).” for “(26,27).”
as §2, with “(47,50): V/Vax=(Ki+α·[I])/(Ki+[I]),” for “(25,28): v=kcat·(Ki+(1/kcat inh)·[I])/(Ki+[I]),”, “α” for “kcat inh”, “is percentage of” for “is”, “turnover remaining” for “turnover”

[1] = biological target: SULT1A3 spin-labeled at Cys 234 (Homo sapiens, UniProt P0DMM9, K234C); test: Initial-rate parameters, spin-labeled SULT1A3 mutant 234
Sequence of SULT1A3 spin-labeled at Cys 234 (P0DMM9 whole entry K234C): as the sequence (P0DMM9 whole entry) above, with K234C counted along it
Experimental: Covalent Tagging of SULT1A3 Cys Constructs. Labeling of the SULT1A3 Cys constructs was performed as described previously (17,18,21). Briefly, 3-maleimido-PROXYL (spin label) or N-cyclohexylmaleimide (diamagnetic control) was added to an enzyme containing solution at 20-fold excess over reactive Cys. Unreacted Cys was monitored using DNTB (17,18,21); reactions were considered complete when >98% of the Cys was labeled. Reaction conditions: SULT1A3 (50 μM, monomer), 3-maleimido-PROXYL or N-cyclohexylmaleimide (1.0 mM), PAP (0.50 mM), KPO4 (50 mM), pH 7.5, 4±2° C. To prepare samples for NMR, reaction mixtures were dialyzed three times against 40 volumes of PAP (0.50 mM), KPO4 (50 mM), pD 7.4, D2O (>95%), 4±2° C.
Initial-Rate Studies. Initial-rate parameters for the labeled or mutant SULT1A3 constructs were determined using a previously described 1-HP assay (25). […] Reactions were monitored via fluorescence change associated with the conversion of 1-HP to 1-HP-S (λex=325 nm, λem=370 nm). Keq for the 1-HP sulfonation reaction is −250. Given the reaction conditions outlined above, ≥99% of 1-HP is converted to 1-HP-S, and ˜0.4% of PAPS is converted to PAP at equilibrium. […] Reaction progress curves were analyzed to obtain initial-rate parameters as described previously (26,27).

Rat (1D1) = biological target: T1, Rat (1D1) (Rattus norvegicus, UniProt G3V9R3); test: Inhibition of SULT1A3 homologues in different species: Rat; assay type: biochemical
T1 sequence (G3V9R3 1-295): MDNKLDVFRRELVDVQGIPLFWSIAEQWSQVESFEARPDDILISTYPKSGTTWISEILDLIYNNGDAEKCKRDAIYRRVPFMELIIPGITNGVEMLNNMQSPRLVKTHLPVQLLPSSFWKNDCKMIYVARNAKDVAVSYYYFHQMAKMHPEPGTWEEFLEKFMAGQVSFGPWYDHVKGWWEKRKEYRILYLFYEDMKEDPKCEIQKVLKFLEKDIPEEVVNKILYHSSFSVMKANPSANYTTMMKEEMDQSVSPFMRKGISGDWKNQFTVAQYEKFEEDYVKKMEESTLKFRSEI
Experimental: (§3) Compounds 12, 23 and 25 were also tested for Inhibition of SULT1A3 in different species.
(§4) Inhibition of SULT1A3 Homologues in Different Species. SULT1A3 is only expressed in humans and higher primates. SULT1D1 is the isoform expressed in dogs and rodents that sulfonates neurotransmitters and is most similar to SULT1A3. Three synthesized allosteres (12, 23, and 25) were tested against both 1A3 and 1D1 from different species in order to explore testing in animal models. […] Mice have been engineered such that their SULT1A1/2 enzymes have been knocked out and replaced with the human versions of those isoforms.

Mouse (1D1) = Mouse (1D1) (Mus musculus, UniProt Q3UZZ6); test: Inhibition of SULT1A3 homologues in different species: Mouse; assay type: biochemical
Sequence of Mouse (1D1) (Q3UZZ6 whole entry): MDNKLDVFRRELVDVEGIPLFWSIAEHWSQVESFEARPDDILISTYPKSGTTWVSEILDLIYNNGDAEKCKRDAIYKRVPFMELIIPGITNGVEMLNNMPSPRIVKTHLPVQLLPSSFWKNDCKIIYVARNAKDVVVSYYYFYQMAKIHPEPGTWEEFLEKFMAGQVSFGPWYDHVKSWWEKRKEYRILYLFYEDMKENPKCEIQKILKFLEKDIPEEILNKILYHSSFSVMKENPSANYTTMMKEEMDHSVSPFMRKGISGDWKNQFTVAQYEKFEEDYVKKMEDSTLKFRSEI
Experimental: as §3, §4

Green Monkey (1A3) = Green Monkey (1A3) (Chlorocebus sabaeus, UniProt Z9LO20H8W3); test: Inhibition of SULT1A3 homologues in different species: Green Monkey; assay type: biochemical
Sequence of Green Monkey (1A3) (Z9LO20H8W3 1-295): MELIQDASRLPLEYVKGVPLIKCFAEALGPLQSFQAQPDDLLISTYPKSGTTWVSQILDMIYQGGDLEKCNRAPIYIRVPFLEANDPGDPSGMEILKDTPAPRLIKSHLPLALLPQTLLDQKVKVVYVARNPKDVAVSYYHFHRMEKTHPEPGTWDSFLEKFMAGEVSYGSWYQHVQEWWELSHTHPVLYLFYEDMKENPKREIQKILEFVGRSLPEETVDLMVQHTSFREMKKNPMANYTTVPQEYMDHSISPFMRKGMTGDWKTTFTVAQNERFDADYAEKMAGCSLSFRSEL
Experimental: as §3, §4

Rhesus Macaque (1A3) = Rhesus Macaque (1A3) (Macaca mulatta, UniProt A0A5F7ZQH3); test: Inhibition of SULT1A3 homologues in different species: Rhesus Macaque; assay type: biochemical
Sequence of Rhesus Macaque (1A3) (A0A5F7ZQH3 1-295): as the sequence (Z9LO20H8W3 1-295) above, with A7T, V15M, C23Y, R230K, Y247F, A278E counted along it
Experimental: as §3, §4

Dog (1D1) = Dog (1D1) (Canis lupus familiaris, UniProt A0A8I3RXJ1); test: Inhibition of SULT1A3 homologues in different species: Dog; assay type: biochemical
Sequence of Dog (1D1) (A0A8I3RXJ1 entry or part of it): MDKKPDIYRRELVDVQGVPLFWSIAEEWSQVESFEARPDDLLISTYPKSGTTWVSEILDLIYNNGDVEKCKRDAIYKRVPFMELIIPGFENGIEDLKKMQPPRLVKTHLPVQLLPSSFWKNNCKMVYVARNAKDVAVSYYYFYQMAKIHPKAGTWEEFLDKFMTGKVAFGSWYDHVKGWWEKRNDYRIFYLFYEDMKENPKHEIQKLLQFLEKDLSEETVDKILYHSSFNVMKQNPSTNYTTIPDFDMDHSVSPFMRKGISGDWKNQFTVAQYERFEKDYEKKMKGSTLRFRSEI
Experimental: as §4, with “Compounds 12, 23 and 25 were also tested for Inhibition of SULT1A3 in different species. Inhibition” for “Inhibition”

[2] = ND = inhibition was not detected at 30 μM compound, parentheses one standard error, read-out: SULT1A3 Ki/μM

SMILES: CC(C)Cc1ccc2cc(CO)ccc2n1 [Compound 8, (2-Isobutylquinolin-6-yl)methanol]
- Ki (SULT1A3; FIG. 1, read-out: Ki of CMP8 for SULT1A3): 0.034 µM
- Ki (SULT1A3; [2]): 0.034 µM
- Ki (SULT1A3; WT enzyme, parentheses one standard deviation, read-out: Ki CMP8): 0.034 µM
- alleviation of inhibition by epigallochatechin gallate or mefenamic acid (SULT1A3; competition against near-total inhibitors of the catechin and NSAID sites): did not alleviate inhibition
- inhibition (SULT1A3; parentheses one standard error): 54%
- SULT1A3 turnover at saturation relative to absence of inhibitor (SULT1A3; partial inhibitor, at saturation): 46%
- kcat (+CMP8)/kcat (−CMP8) (SULT1A3; saturating CMP8): 0.46±0.08
- Ki [1]: 31 nM

SMILES: CC(C)Cc1ccc2cc(CCC(N)=O)ccc2n1 [Compound 12]
- affinity for SULT1A3 (in words) (SULT1A3): low micromolar affinity
- Ki (SULT1A3; [2]): 0.069 µM
- inhibition (SULT1A3; parentheses one standard error): 83%
- Ki (SULT1A3; standard error in neighbouring cell, read-out: Human (1A3) Ki): 0.05 µM
- inhibition at saturation (SULT1A3; text b218): 83%
- Rat (1D1) % inh (Rat (1D1)): 33 (4) %
- Ki (Rat (1D1); parentheses one standard error): 2500 nM
- Mouse (1D1) % inh (Mouse (1D1)): 82 (2) %
- Ki (Mouse (1D1); parentheses one standard error): 79 nM
- Green Monkey (1A3) % inh (Green Monkey (1A3)): 71 (3) %
- Ki (Green Monkey (1A3); parentheses one standard error): 170 nM
- Rhesus Macaque (1A3) % inh (Rhesus Macaque (1A3)): 97 (2) %
- Ki (Rhesus Macaque (1A3); parentheses one standard error): 38 nM
- Dog (1D1) % inh (Dog (1D1)): 83 (6) %
- Ki (Dog (1D1); standard error in neighbouring cell): 77 nM
